Reference: PubChem BioAssay (NCI)
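Where inhibition never reached the appropriate level, the endpoint shown equals the highest concentration tested. Otherwise, values were interpolated linearly from a five-concentration, 48-hour dose response in 96-well plates. The concentration for full growth arrest is given as TGI.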 Where a SMILES comes first, the peptide text is derived from it. [ ]: non-standard residue; d: D form. The star is where a group is joined. Phe(4-NO2) = N[CH](Cc1ccc([N+](=O)[O-])cc1)C(=O)O; Boc = CC(C)(C)OC(=O)*; OtBu = CC(C)(C)O*

Key:
Assay in all cases: NCI tumour cell line growth inhibition, 48 h
OVCAR-3 ovarian = test system: OVCAR-3 ovarian
OVCAR-4 ovarian = test system: OVCAR-4 ovarian
CCRF-CEM leukemia = test system: CCRF-CEM leukemia
CAKI-1 renal = test system: CAKI-1 renal
SK-MEL-5 melanoma = test system: SK-MEL-5 melanoma
SK-OV-3 ovarian = test system: SK-OV-3 ovarian
HOP-62 NSCLC = test system: HOP-62 NSCLC
ACHN renal = test system: ACHN renal
PC-3 prostate = test system: PC-3 prostate
RPMI-8226 leukemia = test system: RPMI-8226 leukemia

| SMILES | TGI (OVCAR-3 ovarian) [µM] | TGI (OVCAR-4 ovarian) [µM] | TGI (CCRF-CEM leukemia) [µM] | TGI (CAKI-1 renal) [µM] | TGI (SK-MEL-5 melanoma) [µM] | TGI (SK-OV-3 ovarian) [µM] | TGI (HOP-62 NSCLC) [µM] | TGI (ACHN renal) [µM] | TGI (PC-3 prostate) [µM] | TGI (RPMI-8226 leukemia) [µM] |
| --- | --- | --- | --- | --- | --- | --- | --- | --- | --- | --- |
| C/C=C\C(CC(=O)O)CC(=O)NCCC1CN(S(=O)(=O)C(F)(F)F)c2ccccc21 (stereo not drawn) | > 100 | > 100 | > 100 | > 100 | > 100 | > 100 | > 100 | > 100 | > 100 | > 100 |
| COc1cc(/C=C2\C[C@H]3[C@@H]4CC=C5C[C@@H](N6CCCC6)CC[C@]5(C)[C@H]4CC[C@]3(C)[C@H]2OC(C)=O)cc(OC)c1OC | 29.8 | 34.8 | > 100 | 32.6 | 28.4 | 29.1 | 29.3 | 32.9 | 27.2 | 29.6 |
| COC(=O)C(Cc1ccc([N+](=O)[O-])cc1)NC(=O)C(CC(=O)OC(C)(C)C)NC(=O)OC(C)(C)C (stereo not drawn) (Boc-Asp(OtBu)-[Phe(4-NO2)]-OMe; configuration not given here) | > 100 | > 100 | > 100 | > 100 | > 100 | > 100 | > 100 | > 100 | > 100 | > 100 |
| CC(=O)Oc1ccc2c(c1)c1c(OC(C)=O)c3ccccc3c(OC(C)=O)c1n2Cc1cccc(C)c1 | 72.9 | > 100 | 62.6 | > 100 | – | 53.5 | 67.3 | > 100 | > 100 | 74.4 |
| N#Cc1nnc2c3c(-c4ccc(Cl)cc4)c(C#N)c(=O)[nH]c3nn2c1N | 8.08 | 51 | > 100 | 16.4 | 19.1 | 18.2 | 21.8 | 21.9 | 24.5 | 51.1 |
| CC(=O)c1nccc2c1c(C)nc1ccccc12 | > 100 | > 100 | 68.6 | > 100 | > 100 | > 100 | > 100 | > 100 | > 100 | 61 |
| C/C(=C/CC[C@](C)(OC1OC(CO)C(O)C(O)C1O)[C@H]1CC[C@]2(C)[C@@H]1CC[C@@H]1[C@@]3(C)CC[C@H](O)C(C)(C)[C@@H]3C[C@H](O)[C@]12C)CO (stereo partly drawn) | 79.7 | > 100 | 95.9 | 81.6 | 39.8 | > 100 | 69.9 | > 100 | 98.2 | 28.3 |
| O=C(O)c1ccccc1-c1ccccc1C(=O)c1ccccc1 | > 100 | > 100 | > 100 | > 100 | > 100 | > 100 | > 100 | > 100 | > 100 | > 100 |
| O=C(NCCCCl)c1c(O)c2ccccc2[nH]c1=O | > 100 | > 100 | > 100 | > 100 | > 100 | > 100 | > 100 | > 100 | > 100 | > 100 |
| Cn1c(=O)c2[nH]c(N/N=C3/SCC(=O)N3Cc3ccccc3)nc2n(C)c1=O | > 100 | > 100 | 62.9 | > 100 | > 100 | > 100 | > 100 | > 100 | > 100 | > 100 |
| O=C1O/C(=C\c2ccc(O)cc2)C(c2ccc(O)c(Cl)c2)=C1Br | 21.1 | 38.4 | 32.8 | 49.3 | 25.9 | 37.2 | 35.3 | 30 | 23.7 | 30.7 |
| COc1cc(O)c2c(c1)C(O)C(O)CC1OC1C(=O)/C=C/CC(C)OC2=O (stereo not drawn) | 16.7 | > 52.9 | 8.8 | 11.5 | 15.4 | > 64.9 | 44.3 | 17 | 24.9 | 34.5 |
| CCOP(=O)(OCC)C(F)(F)CC1CCCCC1 | > 10 | > 10 | > 10 | > 10 | > 10 | > 10 | > 10 | > 10 | > 10 | > 10 |
| COCCCN1C(=O)C2c3[nH]c4ccccc4c3C3CCC(C(C)(C)C)CC3C2C1=O (stereo not drawn) | 35.9 | > 100 | 52.9 | 55 | 82.4 | > 100 | 52.2 | 83.9 | 50.8 | 56.1 |
| Cc1cnc2[nH]c(-c3ccccc3)cc(=O)c2c1 | – | > 100 | 2.79 | > 100 | 21.2 | 16.4 | > 100 | > 100 | > 57.3 | > 8.62 |
| Cc1cc(S(=O)(=O)NC(=NCC(=O)NN)NN)c(S)cc1Cl | > 10 | > 10 | > 10 | > 10 | > 10 | > 10 | > 10 | > 10 | > 10 | > 10 |
| COc1ccc(-c2c(C(C)=O)c(C)n(C3OC(CO)C(O)C(O)C3O)c(=S)c2C#N)cc1 (stereo not drawn) | > 100 | > 100 | > 100 | > 100 | > 100 | > 100 | > 100 | > 100 | > 100 | > 100 |
